{"source": "paper PMC7531004", "about": "“Discovery of gramicidin A analogues with altered activities by multidimensional screening of a one-bead-one-compound library” (Nature Communications, 2020)", "system": "P388 mouse leukemia cells", "conditions": "92 h", "outline": "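P388 cells at 1 × 10^4 cells/mL (final) were exposed to library peptides (stocks diluted 250-fold in RPMI1640/10% FBS) for 92 h at 37 °C, 5% CO2. Viable cells were counted by WST-1/1-methoxy PMS (4 h), absorbance 415 nm, and expressed as cell viability (%).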", "note": "Where a SMILES comes first, the peptide text is derived from it. [ ]: non-standard residue; d: D form. The star is where a group is joined. NHCH2CH2OH = OCCN*; For = O=C*", "data": [{"compound": "CC(C)C[C@@H](NC(=O)[C@H](C)NC(=O)CNC(=O)[C@@H](NC=O)C(C)C)C(=O)N[C@@H](C)C(=O)N[C@@H](C(=O)N[C@H](C(=O)N[C@@H](C(=O)N[C@@H](Cc1c[nH]c2ccccc12)C(=O)N[C@H](CC(C)C)C(=O)N[C@@H](Cc1c[nH]c2ccccc12)C(=O)N[C@H](CC(C)C)C(=O)N[C@@H](Cc1c[nH]c2ccccc12)C(=O)N[C@H](CC(C)C)C(=O)N[C@@H](Cc1c[nH]c2ccccc12)C(=O)NCCO)C(C)C)C(C)C)C(C)C", "note": "[compound 1, Gramicidin A] (For-VGA[dL]A[dV]V[dV]W[dL]W[dL]W[dL]W-NHCH2CH2OH)", "values": [{"measurement": "cell viability/%", "value": 100.0, "unit": "%"}]}]}
